Test results as given in patent US12565468B2, “Processes and intermediates for the preparations of Carboprost and Carboprost Tromethamine, and Carboprost Tromethamine prepared therefrom” (CHIROGATE INTERNATIONAL INC., priority 2021, dated 2026).
Blank lines part the entries; values can stand above or below the compound they belong to.

Columns and labels:
Type in all cases: physicochemical
[1] = Hygroscopicity: water content by Karl Fischer titration after exposure to 99% RH at 25° C.
Method: On the other hand, the hygroscopicity of the high melting point Carboprost Tromethamine crystal prepared from Example 10 (Method A) and the low melting point Carboprost Tromethamine crystal prepared from Example 10 (Method B) was measured. The samples were placed in glass vial with 99% RH at 25° C. for 3 hours, and the water content of the samples were measured by Karl Fischer titration, as shown in Table 6.

[2] = Stability of Carboprost Tromethamine crystal on storage at 25° C./60% RH and 5° C. (HPLC purity and impurities)
From the text: (§1) The high melting point Carboprost Tromethamine Crystal is very stable at room temperature, even at higher temperature, so that the formation of degradation impurities can be effectively avoided.

[3] = Stability of Carboprost Tromethamine crystal at 80° C. (HPLC purity and impurities)
From the text: as §1

- Water Content (%) ([1]; 25° C./99% RH/1 h): 1.509%
- Water Content (%) ([1]; 25° C./99% RH/2 h): 3.354%
- Water Content (%) ([1]; 25° C./99% RH/3 h): 5.881%
- Rate of water absorption (in words) ([1]; 99% RH at 25° C. for 3 hours, compared to the low melting point crystal): relatively low rate of water absorption
- Water Content (%) ([1]; Original): 0.3657%
- 15-epi ([2]; 5° C., 1 month): 0.28%
- Purity ([2]; 5° C., 1 month): 99.72%
- Total Impurities ([2]; 5° C., 1 month): 0.28%
- 15-epi ([2]; 5° C., 12 months): 0.25%
- Purity ([2]; 5° C., 12 months): 99.75%
- Total Impurities ([2]; 5° C., 12 months): 0.25%
- 15-epi ([2]; 5° C., 18 months): 0.25%
- Purity ([2]; 5° C., 18 months): 99.75%
- Total Impurities ([2]; 5° C., 18 months): 0.25%
- 15(R)-epimer ([2]; 25° C./60% RH, 1 month): 0.27%
- Purity ([2]; 25° C./60% RH, 1 month): 99.71%
- Total Impurities ([2]; 25° C./60% RH, 1 month): 0.29%
- 15(R)-epimer ([2]; 25° C./60% RH, 6 months): 0.25%
- Purity ([2]; 25° C./60% RH, 6 months): 99.75%
- Total Impurities ([2]; 25° C./60% RH, 6 months): 0.25%
- 15(R)-epimer ([2]; Control): 0.25%
- Purity ([2]; Control): 99.75%
- Total Impurities ([2]; Control): 0.25%
- Stability (in words) ([2]; at room temperature, even at higher temperature): very stable
- Stability (in words) ([2]; treated at 20° C. for 6 months, 5° C. for 18 months, and 80° C. for 3 days): very stable
- Stability (in words) ([2]; treated at 20° C. for 6 months, PC for 18 months, and 80° C. for 3 days): stable
- 15-epi ([3]; 80° C., 1 days): 0.20%
- Purity ([3]; 80° C., 1 days): 99.79%
- Total Impurities ([3]; 80° C., 1 days): 0.21%
- 15-epi ([3]; 80° C., 3 days): 0.21%
- Purity ([3]; 80° C., 3 days): 99.78%
- Total Impurities ([3]; 80° C., 3 days): 0.22%
- 15-epi ([3]; Control): 0.21%
- Purity ([3]; Control): 99.79%
- Total Impurities ([3]; Control): 0.21%
SMILES: CCCCC[C@](C)(O)/C=C/[C@@H]1[C@@H](C/C=C\CCCC(=O)O)[C@@H](O)C[C@H]1O [Example 10 (Method A), 2-amino-2-(hydroxymethyl)propane-1,3-diol; (Z)-7-((1R,2R,3R,5S)-3,5-dihydroxy-2-((S,E)-3-hydroxy-3-methyloct-1-en-1-yl)cyclopentyl)hept-5-enoate]

- Water Content (%) ([1]; 25° C./99% RH/1 h): 2.236%
- Water Content (%) ([1]; 25° C./99% RH/2 h): 5.45%
- Water Content (%) ([1]; 25° C./99% RH/3 h): 7.513%
- Water Content (%) ([1]; Original): 0.3303%
SMILES: CCCCC[C@](C)(O)/C=C/[C@@H]1[C@@H](C/C=C\CCCC(=O)O)[C@@H](O)C[C@H]1O [Example 10 (Method B), 2-amino-2-(hydroxymethyl)propane-1,3-diol; (Z)-7-((1R,2R,3R,5S)-3,5-dihydroxy-2-((S,E)-3-hydroxy-3-methyloct-1-en-1-yl)cyclopentyl)hept-5-enoate, reference compound]
